Data: ChEMBL document CHEMBL3526058, “Investigating the enteroenteric recirculation of apixaban, a factor Xa inhibitor: administration of activated charcoal to bile duct-cannulated rats and dogs receiving an intravenous dose and use of drug transporter knockout rats” (Drug Metab Dispos, 2013)

Legend:
[1] = Cmax in Sprague-Dawley rat at 4 mg/kg, po administered 1 hr post GF-120918 treatment; assay type: ADME, organism-based; design: dose 4 mg/kg, route oral; conditions: in vivo, with GF-120918
[2] = species: Rattus norvegicus; test: Plasma clearance in rat relative to hepatic blood flow; assay type: ADME, organism-based; conditions: in vivo
[3] = Mean residence time in Sprague-Dawley rat at 4 mg/kg, po administered 1 hr post GF-120918 treatment; assay type: ADME, organism-based; design: dose 4 mg/kg, route oral; conditions: in vivo, with GF-120918
[4] = Half life in Sprague-Dawley rat at 4 mg/kg, po administered 1 hr post GF-120918 treatment; assay type: ADME, organism-based; design: dose 4 mg/kg, route oral; conditions: in vivo, with GF-120918
[5] = tested on: Homo sapiens; test: Volume of distribution in human administered bid orally; assay type: ADME, organism-based; conditions: in vivo, po
[6] = Apparent oral clearance in beagle dog at 5 mg/kg, po followed by activated charcoal administration 0.25 hrs post compound dosing; assay type: ADME, organism-based, Canis lupus familiaris; design: dose 5 mg/kg, route oral; conditions: in vivo
[7] = Cmax in beagle dog at 5 mg/kg, po followed by activated charcoal administration 1 hr post compound dosing; assay type: ADME, organism-based, Canis lupus familiaris; design: dose 5 mg/kg, route oral; conditions: in vivo
[8] = Cmax in BCRP-knockout Sprague-Dawley rat at 4 mg/kg, po; assay type: ADME, organism-based; design: dose 4 mg/kg, route oral; conditions: in vivo
[9] = Plasma concentration in beagle dog at 5 mg/kg, po followed by activated charcoal administration 3 hrs post compound dosing measured at 8 hrs; assay type: ADME, organism-based, Canis lupus familiaris; design: dose 5 mg/kg, route oral
[10] = Oral steady-state volume of distribution in P-gp-knockout Sprague-Dawley rat at 4 mg/kg; assay type: ADME, organism-based; design: dose 4 mg/kg; conditions: in vivo, read-out: Vss/F
[11] = Oral steady-state volume of distribution in BCRP-knockout Sprague-Dawley rat at 4 mg/kg; assay type: ADME, organism-based; design: dose 4 mg/kg; conditions: in vivo, read-out: Vss/F
[12] = Half life in P-gp-knockout Sprague-Dawley rat at 4 mg/kg, po; assay type: ADME, organism-based; design: dose 4 mg/kg, route oral; conditions: in vivo
[13] = AUC (0 to 24 hrs) in beagle dog at 5 mg/kg, po followed by activated charcoal administration 3 hrs post compound dosing; assay type: ADME, organism-based, Canis lupus familiaris; design: time < 24 hr, dose 5 mg/kg, route oral; conditions: plasma
[14] = species: Canis familiaris; test: Plasma clearance in dog relative to hepatic blood flow; assay type: ADME, organism-based, Canis lupus familiaris; conditions: in vivo
[15] = Mean residence time in wild-type Sprague-Dawley rat at 4 mg/kg, po; assay type: ADME, organism-based; design: dose 4 mg/kg, route oral; conditions: in vivo
[16] = Oral steady-state volume of distribution in beagle dog at 5 mg/kg followed by activated charcoal administration 3 hrs post compound dosing; assay type: ADME, organism-based, Canis lupus familiaris; design: dose 5 mg/kg; conditions: in vivo, read-out: Vss/F
[17] = Oral bioavailability in beagle dog at 5 mg/kg; assay type: ADME, organism-based, Canis lupus familiaris; conditions: in vivo
[18] = Half life in human administered bid orally; assay type: ADME, organism-based; conditions: in vivo, po
[19] = AUC (0 to 24 hrs) in beagle dog at 5 mg/kg, po followed by activated charcoal administration 0.25 hrs post compound dosing; assay type: ADME, organism-based, Canis lupus familiaris; design: time < 24 hr, dose 5 mg/kg, route oral; conditions: plasma
[20] = Half life in beagle dog at 5 mg/kg, po followed by activated charcoal administration 3 hrs post compound dosing; assay type: ADME, organism-based, Canis lupus familiaris; design: dose 5 mg/kg, route oral; conditions: in vivo
[21] = Apparent oral clearance in beagle dog at 5 mg/kg, po; assay type: ADME, organism-based, Canis lupus familiaris; design: dose 5 mg/kg, route oral; conditions: in vivo
[22] = Oral steady-state volume of distribution in Sprague-Dawley rat at 4 mg/kg administered 1 hr post GF-120918 treatment; assay type: ADME, organism-based; design: dose 4 mg/kg; conditions: in vivo, with GF-120918, read-out: Vss/F
[23] = Mean residence time in P-gp-knockout Sprague-Dawley rat at 4 mg/kg, po; assay type: ADME, organism-based; design: dose 4 mg/kg, route oral; conditions: in vivo
[24] = Cmax in wild-type Sprague-Dawley rat at 4 mg/kg, po; assay type: ADME, organism-based; design: dose 4 mg/kg, route oral; conditions: in vivo
[25] = Cmax in P-gp-knockout Sprague-Dawley rat at 4 mg/kg, po; assay type: ADME, organism-based; design: dose 4 mg/kg, route oral; conditions: in vivo
[26] = Oral bioavailability in beagle dog at 5 mg/kg followed by activated charcoal administration 1 hr post compound dosing; assay type: ADME, organism-based, Canis lupus familiaris; conditions: in vivo
[27] = Apparent oral clearance in beagle dog at 5 mg/kg, po followed by activated charcoal administration 3 hrs post compound dosing; assay type: ADME, organism-based, Canis lupus familiaris; design: dose 5 mg/kg, route oral; conditions: in vivo
[28] = Half life in beagle dog at 5 mg/kg, po followed by activated charcoal administration 0.25 hrs post compound dosing; assay type: ADME, organism-based, Canis lupus familiaris; design: dose 5 mg/kg, route oral; conditions: in vivo
[29] = Mean residence time in beagle dog at 5 mg/kg, po followed by activated charcoal administration 1 hr post compound dosing; assay type: ADME, organism-based, Canis lupus familiaris; design: dose 5 mg/kg, route oral; conditions: in vivo
[30] = Oral steady-state volume of distribution in beagle dog at 5 mg/kg followed by activated charcoal administration 1 hr post compound dosing; assay type: ADME, organism-based, Canis lupus familiaris; design: dose 5 mg/kg; conditions: in vivo, read-out: Vss/F
[31] = Apparent oral clearance in Sprague-Dawley rat at 4 mg/kg, po administered 1 hr post GF-120918 treatment; assay type: ADME, organism-based; design: dose 4 mg/kg, route oral; conditions: in vivo, with GF-120918
[32] = Oral bioavailability in wild-type Sprague-Dawley rat at 4 mg/kg; assay type: ADME, organism-based; conditions: in vivo

Cmax [1]: 2870 ng/mL
CL [2]: < 5%
MRT [3]: 2.1 h
half-life [4]: 1.6 h
Vd [5]: 0.3 L/kg
CL/F [6]: 1.37 mL/min/kg
Cmax [7]: 8990 ng/mL
Cmax [8]: 1920 ng/mL
concentration at 8 h [9]: 2190 ng/mL
Vd/F [10]: 2.4 L/kg
Vd/F [11]: 1.1 L/kg
half-life [12]: 3.8 h
AUC(0-t) at 24 h [13]: 49200 ng·h/mL
CL [14]: < 5%
MRT [15]: 3.8 h
Vd/F [16]: 0.5 L/kg
bioavailability [17]: 93%
half-life [18]: 12 h
AUC(0-t) at 24 h [19]: 59500 ng·h/mL
half-life [20]: 3 h
CL/F [21]: 1 mL/min/kg
Vd/F [22]: 0.7 L/kg
MRT [23]: 3.8 h
Cmax [24]: 420 ng/mL
Cmax [25]: 940 ng/mL
bioavailability [26]: 99%
CL/F [27]: 1.68 mL/min/kg
half-life [28]: 4.2 h
MRT [29]: 5.9 h
Vd/F [30]: 0.5 L/kg
CL/F [31]: 5 mL/min/kg
bioavailability [32]: 49%
Structure (SMILES): COc1ccc(-n2nc(C(N)=O)c3c2C(=O)N(c2ccc(N4CCCCC4=O)cc2)CC3)cc1
